# Results as given in patent US20240247048A1 (EMORY UNIVERSITY, priority 2021, published 2024).
# Test system: PDAC patient T cells
# Experiment: ex vivo 9-day expansion of PDAC patient peripheral blood T cells
# Assay type: cell-based, human
# Method: (FIG. 17A) Representative western blot and (FIG. 17B) quantified expression levels of VPAC1 and VPAC2; and (FIG. 17C) PD-1 and CTLA-4 in lysates of healthy human T cells expanded with plate bound human anti-CD3 antibodies for 0, 3, 6, 12, 24, 48 and 72 hours. Lower molecular weight band of 25kD shown for VPAC2-specific expression as confirmed from our VPAC2 KO model. Percentage of (FIG. 17D) CD69 expression at 24 h post activation (FIG. 17E) phosphorylation of CREB (phospho-CREB) downstream of VPAC1/2 receptor at 6 h and in CD4+ and CD8+ T cells normalized to levels in control with no peptide. PDAC patient peripheral blood T cells were expanded for 9 days with plate bound human anti-CD3 antibodies+/−ANT008 and the (FIG. 17F) percentage of Tregs was quantified using the (FIG. 17G) gating strategy shown. […] Statistical differences in FIGS. 17D and 17E were calculated via repeated measures ANOVA followed by Dunnett's post-test where each sample in the treatment group was compared to the matched sample in the control group (scrambled treated). Statistical differences in FIGS. 17F, 17H, and 17I were calculated via paired student T-test. […]
# Human T cell activation and expansion. […] Cells were counted using Trypan blue dye and phenotyped via flow cytometry on day 9. […]
sequence,measurement,setting,value
KPRRPYTDNYTRLRKQMAVKKYLNLILN [ANT008],T cells with an exhausted phenotype (co-expressing PD1 and Tim-3 or Lag-3),"CD4+ and CD8+ subsets, 9 days, FIG. 17h, 17i",significantly decreased
same,proportion of human Tregs (CD4+ CD25+ FoxP3+),"after 9 days of T cell expansion, FIG. 17f",significantly decreased
